In PubChem BioAssay (NCI):
Values joined by “and” are separate entries in the source; they are usually repeats but may differ in a detail not shown here. Equal values may be shown once.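 Where inhibition never reached the appropriate level, the endpoint shown equals the highest concentration tested. Otherwise, values were interpolated linearly from a five-concentration, 48-hour dose response in 96-well plates. The concentration for 50% growth inhibition is given as GI50. TGI denotes the concentration required for complete inhibition of growth.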

Columns and labels:
Assay in all cases: NCI tumour cell line growth inhibition, 48 h
MDA-N = test system: MDA-N
DLD-1 colon = test system: DLD-1 colon
SNB-78 CNS = test system: SNB-78 CNS
M19-MEL melanoma = test system: M19-MEL melanoma
LXFL 529 NSCLC = test system: LXFL 529 NSCLC
RXF-631 renal = test system: RXF-631 renal
DMS 114 small cell lung = test system: DMS 114 small cell lung
HOP-18 NSCLC = test system: HOP-18 NSCLC
XF 498 CNS = test system: XF 498 CNS
P388/ADR leukemia = test system: P388/ADR leukemia
P388 leukemia = test system: P388 leukemia
SN12K1 renal = test system: SN12K1 renal

Row | Compound | TGI (MDA-N) | TGI (DLD-1 colon) [µM] | TGI (SNB-78 CNS) [µM] | TGI (M19-MEL melanoma) [µM] | TGI (LXFL 529 NSCLC) [µM] | TGI (DMS 114 small cell lung) [µM] | TGI (HOP-18 NSCLC) [µM] | also measured
1 | COc1cc(NCc2ccc3oc(=O)c(-c4ccccc4)nc3c2)cc(OC)c1OC | > 10 µM |  |  |  |  |  |  | 
2 | O=S1(=O)OCCOS(=O)(=O)C1Br |  | > 100 | > 100 | > 100 | > 100 | > 100 |  | TGI (RXF-631 renal): > 100 µM
3 | CN(C)CCSC1=Nc2ccc(Cl)cc2C(c2ccccc2Cl)=NC1 | 25.8 µM and 89.1 µM |  |  |  |  |  |  | GI50 (MDA-N): 11.8 µM and 25.1 µM
4 | COc1cc2c(c(OC)c1OC)-c1ccc(OC)c(=O)cc1C(NC(=O)c1ccc(N=[N+]=[N-])cc1)CC2 (stereo unspecified) |  | > 100 | > 100 | > 73.2 | > 47.2 | 0.0656 | > 100 | 
5 | C[Si](C)(C)C1(Sc2ccccc2)SCCCS1 |  | > 100 | > 100 | > 100 | > 100 | > 100 |  | TGI (XF 498 CNS): > 100 µM
6 | OC(c1nc2ccccc2[nH]1)C(O)C(O)C(O)c1nc2ccccc2[nH]1 (stereo unspecified) | > 100 µM |  |  |  |  |  |  | 
7 | C=C(Br)C(C)(Br)CCC(Br)C(C)(C)Cl (stereo unspecified) | 39.8 µM |  |  |  |  |  |  | 
8 | CN(C)c1nc(=Nc2ccc(N=c3nc(N(C)C)ss3)cc2)ss1 |  | 30.2 | 38.5 | 40.1 | > 52.1 | 38.1 | > 100 | TGI (RXF-631 renal): 38.8 µM
9 | CCN(CC)/C(SCc1ccccc1)=C(\C(Cl)=C(Cl)Cl)[N+](=O)[O-] | 33.8 µM |  |  |  |  |  |  | 
10 | CCOC(=O)c1cc2nc3ccccc3c(=O)n2c2ccccc12 | > 10 µM |  |  |  |  |  |  | 
11 | Cc1ccc(S(=O)(=O)Nc2ccccc2C(=O)c2ccc(C)c(C)c2)cc1 | > 100 µM |  |  |  |  |  |  | 
12 | COc1cc(OC)cc(-c2cc(=O)c3c(OC)c(OC)c(OC)c(OC)c3o2)c1 | > 100 µM |  |  |  |  |  |  | 
13 | CC(=O)/C(=C\c1cccc([N+](=O)[O-])c1)C(=O)Nc1ccccc1C |  | > 100 | > 100 | > 100 | > 100 | > 100 | > 100 | TGI (XF 498 CNS): > 100 µM
14 | CC(=O)OC1=CC(n2cc(F)c(=O)[nH]c2=O)OC(C)C1=O (stereo unspecified) | > 100 µM | > 100 | > 100 | > 100 | > 100 | > 100 | > 100 | TGI (XF 498 CNS): > 100 µM
15 | Cc1cc(O)c(/C=N/C(=S)NCc2ccccc2)c(=O)o1 | > 100 µM |  |  |  |  |  |  | 
16 | [Cl-].[La+3].[O-]/N=C(\c1ccccc1)c1ccccn1.[O-]/N=C(\c1ccccc1)c1ccccn1.[O-]/N=C(\c1ccccc1)c1ccccn1 |  | > 100 | > 100 | 50 | > 100 | > 100 | > 100 | GI50 (DLD-1 colon): 43.5 µM; GI50 (SNB-78 CNS): > 90.8 µM; GI50 (M19-MEL melanoma): 22 µM; GI50 (LXFL 529 NSCLC): 60.3 µM; GI50 (HOP-18 NSCLC): 31.3 µM; GI50 (DMS 114 small cell lung): 30.8 µM
17 | CC1=CC(O)(c2ccc(-c3ccccc3Cl)cc2)OC1=O (stereo unspecified) |  | > 100 |  | > 100 | > 100 | > 100 | > 100 | TGI (RXF-631 renal): > 100 µM
18 | Nc1ncnc2c1nnn2C1OC(CO)C(O)C1O (stereo unspecified) |  | 25.5 | > 100 | 39.2 |  | 17.1 | 11.8 | TGI (P388/ADR leukemia): 26.7 µM; TGI (XF 498 CNS): 47.3 µM; TGI (P388 leukemia): 16.1 µM; TGI (SN12K1 renal): 9.58 µM
19 | CC(C)=Cc1cc(C(=O)Nc2ccc(Cl)c(Cl)c2)nc(N)n1 |  | > 100 | > 100 | > 100 | > 100 | > 100 | > 100 | TGI (XF 498 CNS): > 100 µM; TGI (RXF-631 renal): > 100 µM
20 | CCN1c2ccccc2C(C(SC)S(=O)(=O)c2ccc(C)cc2)c2c1[nH]c(=O)n(C)c2=O (stereo unspecified) |  | > 100 | > 100 | > 100 | > 100 | > 100 | > 100 | TGI (XF 498 CNS): > 100 µM
21 | O=[N+]([O-])C(/C=C(\Cl)n1nnc2ccccc21)=C(/Cl)n1nnc2ccccc21 | > 100 µM |  |  |  |  |  |  | 
22 | CCOC(=O)CC(=O)ON(C)C(C)=O |  | > 100 | > 100 | > 100 | > 100 | > 100 |  | TGI (XF 498 CNS): > 100 µM
23 | N#CC(C#N)=CNC(N)=S | > 100 µM |  |  |  |  |  |  | 
24 | COc1cc(C2c3cc4c(cc3OC(C)(O)C2C)OCO4)cc(OC)c1OC (stereo unspecified) | 0.258 µM |  |  |  |  |  |  | 
